System: SCG neurons
Assay: In vitro protection of SCG neurons from cisplatin killing
Type: cell-based, Sprague Dawley rats
Conditions: Rattus norvegicus, Neuron; cisplatin 3 μg/mL, 48 hours, MTS viability; read-out: IC50 (±1 μM), protection of SCG neurons against cisplatin killing
Experimental: The mechanism of cisplatin's anti-cancer action is not fully understood, but is believed to involve DNA binding and […]. Cisplatin is toxic to neurons. The addition of cisplatin (3 μg/mL) to cultured SCG neurons induces apoptosis of upwards of 80% of the neurons. The addition of selected compounds of Formula I to the cellular media, concurrently with cisplatin, protects upwards of 100% of the neurons, at drug concentrations ranging from 1 to 50 μM (see Example 64).
In Vitro Protection of SCG neurons from cisplatin killing. SCG neurons were isolated from day 1 neonatal Sprague Dawley rats, plated at a cell density of 10,000 cells/well, and incubated in Biowhittaker Ultraculture containing 1% Penstrep, 1% L-glutamine, 0.7% ARAC, 3% rat serum, and NGF (50 ng/mL, Calomone Labs) at 37° C., under a 5% CO2 atmosphere. After 5 days the cells were treated with compound and cisplatin (3 μg/mL). Viability was assessed 48 hours later using MTS (Promega) staining.

For `O=c1oc2c(Sc3ccc4ccccc4c3)cc(O)cc2s1` [Compound 23, 5-Hydroxy-7-((2-naphthy)sulfanyl)benzo[1,3]oxathiol-2-one], the IC50 was 15 µM.

— patent US20060234987A1, “Neuroprotective benzo 1 3 oxathiol 2 ones” (priority 2003, published 2006)
